SMILES strings stand for the structures. pIC50: −log10 of the molar value.

The subject of the experiment is HBeAg (surrogate marker for cccDNA) in HepDES19 cells. Nature of the experiment: Engineered HepDES19 primary screen assay (HBeAg ELISA). Format: cell-based, HBV. To be noted: Hepatitis B virus, 120 h, HBeAg in culture supernatant, 5 days incubation, read-out: IC50 (HepDES19 primary screen assay, inhibition of extracellular HBeAg level). Put shortly:
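HepDES19 cells pre-induced by Tet withdrawal for 8 days, frozen, then seeded and dosed after 24 h with half-log compound dilutions (1% DMSO final). After 5 days at 37 °C, HBeAg measured by ELISA and viability by CCK-8; IC50 from 4-parameter logistic fit.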
Turning to `O=C(O)C(=O)NC1(COc2cc(C(F)(F)F)ccc2-c2cc(=O)c3cccc(Cl)c3o2)CC1` [Example 110, 2-[[1-[[2-(8-chloro-4-oxo-chromen-2-yl)-5-(trifluoromethyl)phenoxy]methyl]cyclopropyl]amino]-2-oxo-acetic acid], the pIC50 was 5.42.

`O=C(O)C12CC(NCCOc3cc(Br)ccc3-c3cc(=O)c4cccc(Cl)c4o3)(C1)C2` [Example 026, 3-[2-[5-bromo-2-(8-chloro-4-oxo-chromen-2-yl)phenoxy]ethylamino]bicyclo[1.1.1]pentane-1-carboxylic acid]: the pIC50 is 6.34.

For the compound `O=C(O)C(=O)NCC1(COc2cc(C(F)(F)F)ccc2-c2cc(=O)c3cccc(Cl)c3o2)COC1` [Example 010, 2-[[3-[[2-(8-chloro-4-oxo-chromen-2-yl)-5-(trifluoromethyl)phenoxy]methyl]oxetan-3-yl]methylamino]-2-oxo-acetic acid], the pIC50 is 6.66.

`CC(C)[C@H](NCCOc1cc(C(F)(F)F)ccc1-c1cc(=O)c2cccc(Cl)c2o1)C(=O)O` [Example 037, (2S)-2-[2-[2-(8-chloro-4-oxo-chromen-2-yl)-5-(trifluoromethyl)phenoxy]ethylamino]-3-methyl-butanoic acid]: the pIC50 was 5.39.

For `CCC(=O)NCCCOc1cc(C(F)(F)F)ccc1-c1cc(=O)c2cccc(Cl)c2o1` [Example 099], the pIC50 is 5.19.

In the case of `O=C(O)CN(CCCOc1cc(C(F)(F)F)ccc1-c1cc(=O)c2cccc(Cl)c2o1)S(=O)(=O)C1CC1` [Example 145], the pIC50 was 4.84.

In the case of `O=C(O)C1CN(CCOc2cc(C(F)(F)F)ccc2-c2cc(=O)c3cccc(Cl)c3o2)CCO1` (centres unmarked) [Example 035, 4-[2-[2-(8-chloro-4-oxo-chromen-2-yl)-5-(trifluoromethyl)phenoxy]ethyl]morpholine-2-carboxylic acid], the pIC50 is 5.62.

For `CC(C)[C@@H]1NC(=O)N(CCOc2cc(C(F)(F)F)ccc2-c2cc(=O)c3cccc(Cl)c3o2)C1=O` [Example 153], the pIC50 is 6.08.

For the compound `O=c1cc(-c2ccccc2O)oc2cc(O)ccc12` [Example F-1, 7-hydroxy-2-(2-hydroxyphenyl)chromen-4-one, reference compound], the pIC50 is under 4.30.

In the case of `CCOC(=O)C(=O)NCCOc1cc(C)ccc1-c1cc(=O)c2cc(OC)cc(Cl)c2o1` [Example 103], the pIC50 is 5.44.

Turning to `CS(=O)(=O)N1CCN(CCCOc2cc(C(F)(F)F)ccc2-c2cc(=O)c3cccc(Cl)c3o2)CC1` [Example 081, 8-chloro-2-[2-[3-(4-methylsulfonylpiperazin-1-yl)propoxy]-4-(trifluoromethyl)phenyl]chromen-4-one], the pIC50 is 5.15.

Regarding `NC(=O)C1CCN(CCOc2cc(Br)ccc2-c2cc(=O)c3cccc(Cl)c3o2)C1` (centres unmarked) [Example 083, 1-[2-[5-bromo-2-(8-chloro-4-oxo-chromen-2-yl)phenoxy]ethyl]pyrrolidine-3-carboxamide], the pIC50 is 6.25.

For the compound `Cc1ccc(-c2cc(=O)c3cccc(Cl)c3o2)c(OCCCNC(=O)C(=O)O)c1` [Example 120], the pIC50 was 5.53.

As to `Cc1ccc(-c2cc(=O)c3cccc(Cl)c3o2)c(OCCN2CCN(C)C2=O)c1` [Example 092, 1-[2-[2-(8-chloro-4-oxo-chromen-2-yl)-5-methyl-phenoxy]ethyl]-3-methyl-imidazolidin-2-one], the pIC50 is 6.66.

Consider `CC(C)[C@@H](NCCOc1cc(C(F)(F)F)ccc1-c1cc(=O)c2cccc(Cl)c2o1)C(=O)O` [Example 036, (2R)-2-[2-[2-(8-chloro-4-oxo-chromen-2-yl)-5-(trifluoromethyl)phenoxy]ethylamino]-3-methyl-butanoic acid], for which the pIC50 was 5.69.

In the case of `O=C(O)C(CC1CCCCC1)NCCCOc1cc(C(F)(F)F)ccc1-c1cc(=O)c2cccc(Cl)c2o1` (centres unmarked) [Example 063, 2-[3-[2-(8-chloro-4-oxo-chromen-2-yl)-5-(trifluoromethyl)phenoxy]propylamino]-3-cyclohexyl-propanoic acid], the pIC50 is 5.36.

Consider `COc1ccc(-c2cc(=O)c3cccc(Cl)c3o2)c(OCCNC(=O)C(N)=O)c1` [Example 147, N′-[2-[2-(8-chloro-4-oxo-chromen-2-yl)-5-methoxy-phenoxy]ethyl]oxamide], for which the pIC50 was 5.92.

With `O=c1cc(-c2ccc(Br)cc2OC2CCN(S(=O)(=O)C3CC3)CC2)oc2c(Cl)cccc12` [Example 108], the pIC50 was 5.94.

As for `Cc1ccc(-c2cc(=O)c3cccc(Cl)c3o2)c(OCCNC(C)(C)C(=O)O)c1` [Example 058, 2-[2-[2-(8-chloro-4-oxo-chromen-2-yl)-5-methyl-phenoxy]ethylamino]-2-methyl-propanoic acid], the pIC50 is 5.47.

For the compound `O=c1cc(-c2ccc(C(F)(F)F)cc2OCCCN([C@H]2C[C@H](C(=O)O)C2)S(=O)(=O)c2ccccc2)oc2c(Cl)cccc12` [Example 142], the negative-log IC50 (pIC50) was 6.13.

In the case of `CCOC(=O)C(=O)NCCOc1cc(OC)ccc1-c1cc(=O)c2cccc(Cl)c2o1` [Example 104], the pIC50 was 5.02.

Consider `O=C(O)C(=O)N1CC[C@@H](Oc2cc(C(F)(F)F)ccc2-c2cc(=O)c3cccc(Cl)c3o2)C1` [Example 130], for which the pIC50 is 5.32.

Take `CC(C)(C)CC(NCCCOc1cc(C(F)(F)F)ccc1-c1cc(=O)c2cccc(Cl)c2o1)C(=O)O` (centres unmarked) [Example 011, 2-[3-[2-(8-chloro-4-oxo-chromen-2-yl)-5-(trifluoromethyl)phenoxy]propylamino]-4,4-dimethyl-pentanoic acid]: the pIC50 was 5.44.

Take `Cc1ccc(-c2cc(=O)c3cccc(Cl)c3o2)c(OCCN2CC(C(=O)O)C2)c1` [Example 054, 1-[2-[2-(8-chloro-4-oxo-chromen-2-yl)-5-methyl-phenoxy]ethyl]azetidine-3-carboxylic acid]: the negative-log IC50 (pIC50) was 6.62.

Regarding `O=C(O)C1CCN(CCOc2ccccc2-c2cc(=O)c3cc(F)cc(Cl)c3o2)C1` (centres unmarked) [Example 043, 1-[2-[2-(8-chloro-6-fluoro-4-oxo-chromen-2-yl)phenoxy]ethyl]pyrrolidine-3-carboxylic acid], the pIC50 was 5.85.

Turning to `NS(=O)(=O)NCCOc1cc(C(F)(F)F)ccc1-c1cc(=O)c2cccc(Cl)c2o1` [Example 159, 8-chloro-4-oxo-2-[2-[2-(sulfamoylamino)ethoxy]-4-(trifluoromethyl)phenyl]chromene], the pIC50 was 6.08.

`CC(CC(=O)O)NCCCOc1cc(C(F)(F)F)ccc1-c1cc(=O)c2cccc(Cl)c2o1` (centres unmarked) [Example 062, 3-[3-[2-(8-chloro-4-oxo-chromen-2-yl)-5-(trifluoromethyl)phenoxy]propylamino]butanoic acid]: the pIC50 is 5.69.

In the case of `O=C(O)CNCCOc1cc(C(F)(F)F)ccc1-c1cc(=O)c2cccc(Cl)c2o1` [Example 123], the pIC50 was 5.29.

`Cc1ccc(-c2cc(=O)c3cccc(Cl)c3o2)c(OCCNC(=O)N[C@@H](C)C(=O)O)c1` [Example 151, (2S)-2-[2-[2-(8-chloro-4-oxo-chromen-2-yl)-5-methyl-phenoxy]ethylcarbamoylamino]propanoic acid]: the pIC50 was 6.20.

Turning to `CC(C)COc1ccc(-c2cc(=O)c3cccc(Cl)c3o2)c(OCCN2CC[C@@H](C(=O)O)C2)c1` [Example 039, (3R)-1-[2-[2-(8-chloro-4-oxo-chromen-2-yl)-5-isobutoxy-phenoxy]ethyl]pyrrolidine-3-carboxylic acid], the pIC50 was 5.46.

In the case of `O=C(O)C1CCN(CCCOc2cc(C(F)(F)F)ccc2-c2cc(=O)c3cccc(Cl)c3o2)C1` (centres unmarked) [Example 012, 1-[3-[2-(8-chloro-4-oxo-chromen-2-yl)-5-(trifluoromethyl)phenoxy]propyl]pyrrolidine-3-carboxylic acid], the pIC50 is 6.96.

As for `O=C(O)CN(CCCOc1cc(C(F)(F)F)ccc1-c1cc(=O)c2cccc(Cl)c2o1)S(=O)(=O)c1ccccc1` [Example 143], the pIC50 is 5.62.

With `Cc1ccc(-c2cc(=O)c3cccc(Cl)c3o2)c(OCCN2CCNC2=O)c1` [Example 091, 1-[2-[2-(8-chloro-4-oxo-chromen-2-yl)-5-methyl-phenoxy]ethyl]imidazolidin-2-one], the pIC50 was 5.55.

`O=C(O)C1CN(CCOc2ccccc2-c2cc(=O)c3cccc(Cl)c3o2)C1` [Example 033, 1-[2-[2-(8-chloro-4-oxo-chromen-2-yl)phenoxy]ethyl]azetidine-3-carboxylic acid]: the pIC50 was 5.96.

Turning to `O=C(O)[C@@H]1CCCN1CCOc1ccccc1-c1cc(=O)c2cccc(Cl)c2o1` [Example 032, (2S)-1-[2-[2-(8-chloro-4-oxo-chromen-2-yl)phenoxy]ethyl]pyrrolidine-2-carboxylic acid], the pIC50 is 6.19.

For the compound `O=C(NCCOc1cc(C(F)(F)F)ccc1-c1cc(=O)c2cccc(Cl)c2o1)C(=O)NC1CC1` [Example 148, N-[2-[2-(8-chloro-4-oxo-chromen-2-yl)-5-(trifluoromethyl)phenoxy]ethyl]-N′-cyclopropyl-oxamide], the pIC50 is 5.92.

Take `O=C(O)[C@H]1CCCN1CCOc1ccccc1-c1cc(=O)c2cccc(Cl)c2o1` [Example 030, (2R)-1-[2-[2-(8-chloro-4-oxo-chromen-2-yl)phenoxy]ethyl]pyrrolidine-2-carboxylic acid]: the pIC50 is 5.88.

Turning to `Cc1cc(-c2cc(=O)c3cccc(Cl)c3o2)c(OCCN2CCC[C@H]2C(=O)O)cc1Cl` [Example 045], the pIC50 was 5.19.

These data come from patent US20220169639A1 (priority 2018, published 2022).
